# In US4871727A, “Anti-inflammatory and antidegenerative compounds isolated from L-681,512” (Merck & Co, Inc., priority 1987, dated 1989):
# Target: T1, Human Polymorphonuclear Leukocyte Elastase (Homo sapiens, UniProt P08246)
# T1 construct: Crude extract of human polymorphonuclear leukocytes (PMN) containing elastase activity; endogenous in cells; host or cells: human polymorphonuclear leukocytes (crude extract)
# T1 sequence (P08246 30-247 limits assumed): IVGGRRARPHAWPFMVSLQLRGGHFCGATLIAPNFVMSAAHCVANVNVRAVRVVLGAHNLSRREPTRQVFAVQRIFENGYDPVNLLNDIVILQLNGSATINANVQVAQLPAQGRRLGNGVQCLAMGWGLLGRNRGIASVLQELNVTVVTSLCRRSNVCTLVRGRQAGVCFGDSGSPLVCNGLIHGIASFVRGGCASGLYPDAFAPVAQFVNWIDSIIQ
# Assay: Inhibition of human polymorphonuclear leukocyte (PMN) elastase via hydrolysis of N-t-Boc-alanyl-alanyl-prolyl-alanine-p-nitroanilide (two point or "zero time" assay)
# Type: biochemical
# Settings: 50% inhibition of the enzyme activity 2 minutes after zero time; crude human PMN extract; 0.2 mM Boc-AAPAN, pH 7.5, 410 nm; read-out: ED50 (the source's name) (converted)
# Text: It is generally understood that the enzyme of interest is that enzyme against which the inhibitory activity of the fermentation broth samples are being determined and quantified (e.g., PMN elastase). Consequently, all of the remaining wells are charged with the same enzyme of interest. However, several enzymes of interest can be charged to a plurality of wells, and the wells grouped together to facilitate separate identification and assay. When this is done, separate control wells must then also be prepared to correspond to the different enzymes of interest.
# The chromogenic medium is charged to all the wells at substantially the same time and the time of this addition is noted. This is the "zero time" mentioned earlier as it is from that moment that a predetermined time lapse is measured during which sufficient reaction between the fermentation broth samples and the enzyme of interest occurs to enable not only accurate screening of enzyme inhibitory activity, but also the degree of that activity. Naturally, the predetermined time lapse will differ with different enzymes and can be from about 1 minute to about 20 minutes, typically from about 2 minutes to about 10 minutes.
# The chromogenic media typically used are aromatic nitro- containing compounds. Illustrative of such compounds are Boc-ala-ala-pro-ala-p-nitroanilide, -α-benzoyl-DL-arginine-p-nitroanilide, N-α-benzoyl-L-tyrosine-p-nitroanilide, and the like.
# Using the two point or "zero time" assay method described above, the following protocol was employed:
# Enzyme Assays for the Inhibition of Human Polymorphonuclear Leukocyte Elastase Via Hydrolysis of N-t-Boc-alanyl-alanyl-prolylalanine-p-nitroanilide
# 0.05M TES (N-tris[hydroxymethyl]methyl-2-amino-ethanesulfonic acid) Buffer, pH 7.5.
# 0.2 mM N-t-Boc-alanyl-alanyl-prolyl-alanine-p-nitroanilide (Boc-AAPAN).
# To prepare substrate, the solid (m.w. 550) was first dissolved in 10.1 ml DMSO. Buffer at pH 7.5 was then added to a final volume of 100 ml.
# Crude extract of human polymorphonuclear leukocytes (PMN) containing elastase activity.
# Inhibitors (cephalosporin sulfone esters) to be tested dissolved in DMSO just before use.
# To 1.0 ml of 0.2 mM Boc-AAPAN in a cuvette, 0.01-0.1 ml of DMSO with or without inhibitor was added. After mixing, a measurement was taken at 410 nm to detect any spontaneous hydrolysis due to presence of test compound. 0.05 Milliliters of PMN extract was then added and the ΔOD/min at 410 nm was measured and recorded. A Beckman model 35 spectrophotometer was used.
# Results were reported as ED50, i.e., effective dosage in micrograms per milliliter (μg/ml) for 50% inhibition of the enzyme activity 2 minutes after zero time.
# The elastase activity in the crude PMN extract may vary from one preparation to another. A control of each new batch is run, and the volume added in the assay procedure is adjusted according to activity.
row,SMILES,IC50 [nM]
1,C=C(CCC(C)[C@H]1CC=C2C3=C([C@@H](O)[C@H](OC(C)=O)C21C)C1(C)C[C@@H](O)[C@H](OS(=O)(=O)O)C(C)(C)[C@@H]1CC3)C(C)C (some centres unmarked) [Compound 1],2350
2,C=C(CCC(C)[C@H]1CC=C2C3=C([C@@H](OC(C)=O)[C@H](OC(C)=O)C21C)C1(C)C[C@@H](OC(C)=O)[C@H](OS(=O)(=O)O)C(C)(C)[C@@H]1CC3)C(C)C (some centres unmarked) [Compound 10],262000
3,C=C(CCC(C)[C@H]1CC=C2C3=C([C@@H](O)[C@H](O)C21C)C1(C)C[C@@H](O)[C@H](OS(=O)(=O)O)C(C)(C)[C@@H]1CC3)C(C)C (some centres unmarked) [Compound 11],3440
4,C=C(CCC(C)[C@H]1CC=C2C3=C([C@@H](O)[C@H](OC(C)=O)C21C)C1(C)C[C@@H](O)[C@H](O)C(C)(C)[C@@H]1CC3)C(C)C (some centres unmarked) [Compound 5],1750
5,C=C(CCC(C)[C@H]1CCC2C3=C([C@@H](O)[C@H](OC(C)=O)C21C)C1(C)C[C@@H](O)[C@H](OS(=O)(=O)O)C(C)(C)[C@@H]1CC3)C(C)C (some centres unmarked) [Compound 2],2510
